In patent US8394792B2, “Heterocyclic derivatives” (C&C Research Laboratories, priority 2008, dated 2013) one finds IC50 and solubility data, which are given here for 14 compounds.

Each structure is given as a SMILES string. ≈ marks a conversion by molar mass, not a printed value. Counter-ions that a name gives are not always drawn. Like-named read-outs stand apart in the source and are kept apart here.

The target of data set [1] is CYP2C9 (Homo sapiens, UniProt P11712). Kind of data set: biochemical.
Chain of CYP2C9 (P11712 whole entry): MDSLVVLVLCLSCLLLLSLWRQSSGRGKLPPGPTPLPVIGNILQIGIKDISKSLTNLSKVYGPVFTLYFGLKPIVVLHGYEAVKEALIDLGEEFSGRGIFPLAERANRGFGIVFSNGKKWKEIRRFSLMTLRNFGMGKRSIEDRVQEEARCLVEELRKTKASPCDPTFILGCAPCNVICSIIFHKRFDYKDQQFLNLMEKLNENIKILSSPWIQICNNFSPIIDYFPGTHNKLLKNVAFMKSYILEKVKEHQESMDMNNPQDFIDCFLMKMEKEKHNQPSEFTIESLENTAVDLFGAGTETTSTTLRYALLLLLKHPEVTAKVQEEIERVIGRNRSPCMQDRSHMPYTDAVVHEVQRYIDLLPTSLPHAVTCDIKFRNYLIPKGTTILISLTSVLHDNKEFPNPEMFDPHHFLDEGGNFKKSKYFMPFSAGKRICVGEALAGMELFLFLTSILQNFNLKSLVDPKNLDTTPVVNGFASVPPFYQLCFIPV
Data set [2] in a line: Test for solubility according to pH. Format: physicochemical. The conditions noted are these: thermodynamic from solid, 37° C. 2 hours.
Protocol: 2.0 g of sodium chloride was dissolved in 7.0 mL of hydrochloric acid and water to make the total volume of 1000 mL. This solution was colorless and clear. Its pH was about 1.2.
To 250 mL of 0.2 mol/L potassium dihydrogen phosphate solution, 118 mL of 0.2 mol/L sodium hydroxide solution and water were added to make the total volume of 1000 mL. This solution was colorless and clear. Its pH was about 6.8.
For the compounds of present invention prepared in the examples, the test samples were prepared in each of the first and second solutions with 2 mg/mL concentration. This test sample solution was agitated for 10 seconds, sonicated for 1 minute and heated at 37° C. for 2 hours. The heated test sample solution was filtered to remove undissolved compounds therein. From filtered solution, 100 μl of the completely dissolved solution was sampled and 100 μl of acetonitrile was added thereto to make test sample solution. For each analysis of test sample solution, the solubility was measured by using liquid chromatography.
The mark [3] stands for this setting: 37 °C, pH 1.2, simulated gastric fluid, first solution pH about 1.2, 2 mg/mL, read-out: Solubility (μg/mL) pH 1.2.
[4] abbreviates: 37 °C, pH 6.8, aqueous buffer, second solution pH about 6.8, 2 mg/mL, read-out: Solubility (μg/mL) pH 6.8.
Setting [5] is: pH 1.2, simulated gastric fluid, first solution pH about 1.2, 2 mg/mL, read-out: Solubility (μg/mL) pH 1.2.
[6] abbreviates: pH 6.8, aqueous buffer, second solution pH about 6.8, 2 mg/mL, read-out: Solubility (μg/mL) pH 6.8.

The IC50 is the concentration at which inhibition is half-maximal. Read a high IC50 as a need for much substance. The compound `O=C(c1ccc(O)c(Cl)c1)N1CCOc2cnccc21` [Compound 18, (3-chloro-4-hydroxy-phenyl)-(2,3-dihydro-pyrido[3,4-b][1,4]oxazin-1-yl)-methanone bromic acid salt] gave an IC50 in data set [1] of 9.7 µM.
For the compound `O=C(c1cc(Cl)nc(Cl)c1)N1CCOc2ccncc21` [Compound 31, (2,6-dichloro-pyridin-4-yl)-(2,3-dihydro-pyrido[4,3-b][1,4]oxazin-4-yl)-methanone], the solubility at 2 h in data set [2] (setting [3]) is 1850 µg/mL (≈ 5.95 mM); in data set [2] (setting [4]), 199 µg/mL (≈ 0.641 mM). For the same compound, the IC50 in data set [1] is greater than 20 µM.
Taken in the same sequence, the figures for `O=C(c1ccc(O)nc1)N1CCOc2ccncc21` [Compound 32, (2,3-dihydro-pyrido[4,3-b][1,4]oxazin-4-yl)-(6-hydroxy-pyridin-3-yl)-methanone] were 1960 µg/mL (≈ 7.62 mM), 1470 µg/mL (≈ 5.73 mM) and greater than 20 µM.
With `Cl.O=C(c1cc(Br)c(O)c(Br)c1)N1CCOc2ccncc21` [Compound 33, (3,5-dibromo-4-hydroxy-phenyl)-(2,3-dihydro-pyrido[4,3-b][1,4]oxazin-4-yl)-methanone hydrochloric acid salt], the solubility at 2 h in data set [2] (setting [5]) is 1580 µg/mL; in data set [2] (setting [6]), 810 µg/mL.
`O=C(c1ccc(O)c(Cl)c1)N1CCOc2cnccc21` [Compound 34, (3-chloro-4-hydroxy-phenyl)-(2,3-dihydro-pyrido[3,4-b][1,4]oxazin-1-yl)-methanone] registered a half-inhibitory concentration (IC50) in data set [1] of 19.6 µM.
Still for that read-out and setting: for `O=S(=O)(c1ccc(O)cc1)N1CCOc2ccncc21` [Compound 35-1, 4-(2,3-dihydro-pyrido[4,3-b][1,4]oxazin-4-sulfonyl)-phenol] the value was greater than 20 µM.
With `O=C(c1ccc(O)c(Br)c1)N1CCOc2cnccc21` [Compound 40, (3-bromo-4-hydroxy-phenyl)-(2,3-dihydro-pyrido[3,4-b][1,4]oxazin-1-yl)-methanone], the solubility at 2 h in data set [2] (setting [3]) was 1320 µg/mL (≈ 3.93 mM); in data set [2] (setting [4]), 473 µg/mL (≈ 1.41 mM). Further, the IC50 in data set [1] amounted to 15.1 µM.
For `COc1cc(C(=O)N2CCOc3ccncc32)on1` [Compound 43, (2,3-dihydro-pyrido[4,3-b][1,4]oxazin-4-yl)-(3-methoxy-isoxazol-5-yl)-methanone], the values for the solubility at 2 h in data set [2] (setting [3]) and in data set [2] (setting [4]) were 1260 µg/mL (≈ 4.82 mM) and 1010 µg/mL (≈ 3.86 mM), respectively. In data set [1], the half-inhibitory concentration (IC50) is greater than 20 µM.
Turning to `O=C(c1cc(O)no1)N1CCOc2ccncc21` [Compound 44, (2,3-dihydro-pyrido[4,3-b][1,4]oxazin-4-yl)-(3-hydroxy-isoxazol-5-yl)-methanone], the solubility at 2 h in data set [2] (setting [3]) is 1960 µg/mL (≈ 7.93 mM); in data set [2] (setting [4]) it was 2100 µg/mL (≈ 8.48 mM). Moreover, the IC50 in data set [1] was greater than 20 µM.
Compound `O=C(CN1CCOc2ccncc21)c1cc(Br)c(O)c(Br)c1` [Compound 54, 1-(3,5-dibromo-4-hydroxy-phenyl)-2-(2,3-dihydro-pyrido[4,3-b][1,4]oxazin-4-yl)-ethanone] showed a half-maximal inhibitory concentration (IC50) in data set [1] greater than 6 µM.
On the same count and under the same terms, for `COc1c(Br)cc(C(=O)N2C(=O)COc3ccncc32)cc1Br` [Compound 57, 4-(3,5-dibromo-4-methoxy-benzoyl)-4H-pyrido[4,3-b][1,4]oxazin-3-one] the value was greater than 20 µM.
Take `O=C(c1cnc(O)nc1O)N1CCOc2ccncc21` [Compound 59, (2,3-dihydro-pyrido[4,3-b][1,4]oxazin-4-yl)-(2,4-dihydroxy-pyrimidin-5-yl)-methanone]: the solubility at 2 h in data set [2] (setting [3]) is 2240 µg/mL (≈ 8.18 mM); in data set [2] (setting [4]) it was 676 µg/mL (≈ 2.47 mM). The IC50 in data set [1] is greater than 20 µM.
Consider `O=C(c1cc(Br)c([O-])c(Br)c1)N1CCOc2ccncc21.[K+]` [Compound 73], for which the solubility at 2 h was 1150 µg/mL in data set [2] (setting [5]) and 565 µg/mL in data set [2] (setting [6]).
As to `O=C1CCCN1c1cnc2c(c1)N(C(=O)c1cc(Br)c(O)c(Br)c1)CCO2` [Compound 75, 1-[1-(3,5-dibromo-4-hydroxy-benzoyl)-2,3-dihydro-1H-pyrido[2,3-b][1,4]oxazin-7-yl]-pyrrolidin-2-one], the IC50 in data set [1] came out at 11.6 µM.
